Measurements reported in patent US6479435B1, “Diaryl ethers and processes for their preparation and herbicidal and desiccant compositions containing them” (ISK Americas Incorporated, priority 1997, dated 2002).

Legend:
Format in all cases: in vivo
[1] = test system: Johnsongrass (Sorghum halepense, SORHA); assay: Pre-emerge greenhouse herbicide test, phytotoxicity rating; conditions: 14 days after application, rating scale 0-100
Procedure, shortened: (§1)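 Seeds sown in sandy loam mix one day before track-sprayer application of compounds in acetone at 125–1000 g ai/ha (187 l/ha), then surface-watered to incorporate and bottom-watered. Visual rating 14 days after application on a 0–100 scale (0 = no damage, 100 = all plants dead).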

[2] = test system: barnyardgrass (Echinochloa crusgalli, ECHCG); assay: as above; conditions: 14 days after application, rating scale 0-100
Procedure, shortened: as §1

[3] = test system: common ragweed (Ambrosia artemisiifolia L., AMBEL); assay: as above; conditions: 14 days after application, rating scale 0-100
Procedure, shortened: as §1

[4] = test system: green foxtail (Setaria viridis, SETVI); assay: as above; conditions: 14 days after application, rating scale 0-100
Procedure, shortened: as §1

[5] = test system: ivyleaf morningglory (Ipomoea hederacea, IPOHE); assay: as above; conditions: 14 days after application, rating scale 0-100
Procedure, shortened: as §1

[6] = test system: lambsquarters (Chenopodium album, CHEAL); assay: as above; conditions: 14 days after application, rating scale 0-100
Procedure, shortened: as §1

[7] = test system: large crabgrass (Digitaria sanguinalis, DIGSA); assay: as above; conditions: 14 days after application, rating scale 0-100
Procedure, shortened: as §1

[8] = test system: redroot pigweed (Amaranthus retroflexus, AMARE); assay: as above; conditions: 14 days after application, rating scale 0-100
Procedure, shortened: as §1

[9] = test system: sicklepod (Cassia obtusifolia, CASOB); assay: as above; conditions: 14 days after application, rating scale 0-100
Procedure, shortened: as §1

[10] = test system: velvetleaf (Abutilon theophrasti, ABUTH); assay: as above; conditions: 14 days after application, rating scale 0-100
Procedure, shortened: as §1

[11] = test system: field corn (Zea mays L., var. Dekalb 535, CORN); assay: Pre-emerge greenhouse test, crop damage rating; conditions: 14 days after application, rating scale 0-100
Procedure, shortened: as §1

[12] = test system: upland rice (Oryza sp., var.Tebonnet, RICE); assay: Pre-emerge greenhouse test, crop damage rating; conditions: 14 days after application, rating scale 0-100
Procedure, shortened: as §1

[13] = test system: soybean (Glycine max L., var. Pella 86, SOY); assay: Pre-emerge greenhouse test, crop damage rating; conditions: 14 days after application, rating scale 0-100
Procedure, shortened: as §1

[14] = test system: common ragweed (Ambrosia artemisiifolia L., AMBEL); assay: Post-emerge greenhouse herbicide test, phytotoxicity rating; conditions: 14 days after application
Procedure, shortened: (§2)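 Compounds in acetone with 0.25% v/v non-ionic surfactant were track-sprayed at 187 l/ha over plants at the 2-3 leaf stage, at 63 to 1000 g ai/ha. Pots were bottom-watered. Injury was scored visually 14 days later on a 0-100 scale, where 0 is no damage and 100 is complete plant death.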

[15] = test system: Johnsongrass (Sorghum halepense, SORHA); assay: as above; conditions: 14 days after application
Procedure, shortened: as §2

[16] = test system: barnyardgrass (Echinochloa crusgalli, ECHCG); assay: as above; conditions: 14 days after application
Procedure, shortened: as §2

[17] = test system: green foxtail (Setaria viridis, SETVI); assay: as above; conditions: 14 days after application
Procedure, shortened: as §2

[18] = test system: ivyleaf morningglory (Ipomoea hederacea, IPOHE); assay: as above; conditions: 14 days after application
Procedure, shortened: as §2

[19] = test system: lambsquarters (Chenopodium album, CHEAL); assay: as above; conditions: 14 days after application
Procedure, shortened: as §2

[20] = test system: large crabgrass (Digitaria sanguinalis, DIGSA); assay: as above; conditions: 14 days after application
Procedure, shortened: as §2

[21] = test system: redroot pigweed (Amaranthus retroflexus, AMARE); assay: as above; conditions: 14 days after application
Procedure, shortened: as §2

[22] = test system: sicklepod (Cassia obtusifolia, CASOB); assay: as above; conditions: 14 days after application
Procedure, shortened: as §2

[23] = test system: velvetleaf (Abutilon theophrasti, ABUTH); assay: as above; conditions: 14 days after application
Procedure, shortened: as §2

[24] = test system: field corn (Zea mays L., var. Dekalb 535, CORN); assay: Post-emerge greenhouse test, crop damage rating; conditions: 14 days after application
Procedure, shortened: as §2

[25] = test system: upland rice (Oryza sp., var.Tebonnet, RICE); assay: Post-emerge greenhouse test, crop damage rating; conditions: 14 days after application
Procedure, shortened: as §2

[26] = test system: soybean (Glycine max L., var. Pella 86, SOY); assay: Post-emerge greenhouse test, crop damage rating; conditions: 14 days after application
Procedure, shortened: as §2

O=c1n(-c2cc(Oc3ccc([N+](=O)[O-])cc3)c(Cl)cc2F)c(=S)n2n1CCCC2 [Compound 8-8]
75: SOY crop damage rating (0-100) ([26]; 500 g al/ha)
60: phytotoxicity rating SETVI ([4]; 125 g ai/ha)
99: CHEAL phytotoxicity rating (0-100) ([19]; 63 g al/ha)
30: phytotoxicity rating SORHA ([1]; 125 g ai/ha) | phytotoxicity rating SORHA ([1]; 500 g ai/ha) | AMBEL phytotoxicity rating (0-100) ([14]; 63 g al/ha) | SETVI phytotoxicity rating (0-100) ([17]; 500 g al/ha)
95: phytotoxicity rating SETVI ([4]; 500 g ai/ha) | AMARE phytotoxicity rating (0-100) ([21]; 63 g al/ha) | ABUTH phytotoxicity rating (0-100) ([23]; 63 g al/ha)
10: phytotoxicity rating IPOHE ([5]; 500 g ai/ha) | phytotoxicity rating CHEAL ([6]; 500 g ai/ha) | SORHA phytotoxicity rating (0-100) ([15]; 63 g al/ha) | ECHCG phytotoxicity rating (0-100) ([16]; 63 g al/ha) | CORN crop damage rating (0-100) ([24]; 63 g al/ha) | CORN crop damage rating (0-100) ([24]; 500 g al/ha) | RICE crop damage rating (0-100) ([25]; 500 g al/ha)
40: phytotoxicity rating DIGSA ([7]; 125 g ai/ha) | phytotoxicity rating DIGSA ([7]; 500 g ai/ha) | AMBEL phytotoxicity rating (0-100) ([14]; 500 g al/ha) | CASOB phytotoxicity rating (0-100) ([22]; 63 g al/ha) | CASOB phytotoxicity rating (0-100) ([22]; 500 g al/ha)
90: phytotoxicity rating ABUTH ([10]; 125 g ai/ha) | IPOHE phytotoxicity rating (0-100) ([18]; 63 g al/ha)
20: phytotoxicity rating ECHCG ([2]; 500 g ai/ha) | phytotoxicity rating AMBEL ([3]; 500 g ai/ha) | crop damage rating SOY ([13]; 500 g ai/ha) | SETVI phytotoxicity rating (0-100) ([17]; 63 g al/ha)
25: SOY crop damage rating (0-100) ([26]; 63 g al/ha)
100: phytotoxicity rating AMARE ([8]; 125 g ai/ha) | phytotoxicity rating AMARE ([8]; 500 g ai/ha) | phytotoxicity rating ABUTH ([10]; 500 g ai/ha) | CHEAL phytotoxicity rating (0-100) ([19]; 500 g al/ha) | AMARE phytotoxicity rating (0-100) ([21]; 500 g al/ha) | ABUTH phytotoxicity rating (0-100) ([23]; 500 g al/ha)
0: phytotoxicity rating ECHCG ([2]; 125 g ai/ha) | phytotoxicity rating AMBEL ([3]; 125 g ai/ha) | phytotoxicity rating IPOHE ([5]; 125 g ai/ha) | phytotoxicity rating CHEAL ([6]; 125 g ai/ha) | phytotoxicity rating CASOB ([9]; 125 g ai/ha) | crop damage rating CORN ([11]; 500 g ai/ha) | crop damage rating RICE ([12]; 125 g ai/ha) | crop damage rating RICE ([12]; 500 g ai/ha) | crop damage rating SOY ([13]; 125 g ai/ha) | SORHA phytotoxicity rating (0-100) ([15]; 500 g al/ha) | ECHCG phytotoxicity rating (0-100) ([16]; 500 g al/ha) | DIGSA phytotoxicity rating (0-100) ([20]; 63 g al/ha) | DIGSA phytotoxicity rating (0-100) ([20]; 500 g al/ha) | RICE crop damage rating (0-100) ([25]; 63 g al/ha)
80: phytotoxicity rating CASOB ([9]; 500 g ai/ha)
50: IPOHE phytotoxicity rating (0-100) ([18]; 500 g al/ha)
5: crop damage rating CORN ([11]; 125 g ai/ha)

Nc1ccc(Oc2cc(-n3c(=O)n4n(c3=S)CCCC4)c(F)cc2Cl)cc1 [Compound 8-9]
40: phytotoxicity rating CASOB ([9]; 500 g ai/ha) | IPOHE phytotoxicity rating (0-100) ([18]; 63 g al/ha)
50: ABUTH phytotoxicity rating (0-100) ([23]; 63 g al/ha)
95: phytotoxicity rating AMARE ([8]; 500 g ai/ha) | CHEAL phytotoxicity rating (0-100) ([19]; 500 g al/ha)
70: phytotoxicity rating CHEAL ([6]; 125 g ai/ha) | SOY crop damage rating (0-100) ([26]; 500 g al/ha)
100: phytotoxicity rating CHEAL ([6]; 500 g ai/ha) | phytotoxicity rating AMARE ([8]; 125 g ai/ha) | phytotoxicity rating ABUTH ([10]; 500 g ai/ha) | IPOHE phytotoxicity rating (0-100) ([18]; 500 g al/ha) | AMARE phytotoxicity rating (0-100) ([21]; 500 g al/ha) | CASOB phytotoxicity rating (0-100) ([22]; 500 g al/ha) | ABUTH phytotoxicity rating (0-100) ([23]; 500 g al/ha)
20: SOY crop damage rating (0-100) ([26]; 63 g al/ha)
60: phytotoxicity rating ABUTH ([10]; 125 g ai/ha) | CHEAL phytotoxicity rating (0-100) ([19]; 63 g al/ha)
90: AMARE phytotoxicity rating (0-100) ([21]; 63 g al/ha)
10: phytotoxicity rating IPOHE ([5]; 500 g ai/ha) | DIGSA phytotoxicity rating (0-100) ([20]; 500 g al/ha) | CORN crop damage rating (0-100) ([24]; 500 g al/ha)
30: phytotoxicity rating AMBEL ([3]; 125 g ai/ha) | phytotoxicity rating AMBEL ([3]; 500 g ai/ha) | phytotoxicity rating SETVI ([4]; 500 g ai/ha) | AMBEL phytotoxicity rating (0-100) ([14]; 63 g al/ha) | SORHA phytotoxicity rating (0-100) ([15]; 500 g al/ha) | SETVI phytotoxicity rating (0-100) ([17]; 500 g al/ha)
0: phytotoxicity rating SORHA ([1]; 125 g ai/ha) | phytotoxicity rating SORHA ([1]; 500 g ai/ha) | phytotoxicity rating ECHCG ([2]; 125 g ai/ha) | phytotoxicity rating ECHCG ([2]; 500 g ai/ha) | phytotoxicity rating SETVI ([4]; 125 g ai/ha) | phytotoxicity rating IPOHE ([5]; 125 g ai/ha) | phytotoxicity rating DIGSA ([7]; 125 g ai/ha) | phytotoxicity rating DIGSA ([7]; 500 g ai/ha) | phytotoxicity rating CASOB ([9]; 125 g ai/ha) | crop damage rating CORN ([11]; 125 g ai/ha) | crop damage rating CORN ([11]; 500 g ai/ha) | crop damage rating RICE ([12]; 125 g ai/ha) | crop damage rating RICE ([12]; 500 g ai/ha) | crop damage rating SOY ([13]; 125 g ai/ha) | crop damage rating SOY ([13]; 500 g ai/ha) | SORHA phytotoxicity rating (0-100) ([15]; 63 g al/ha) | ECHCG phytotoxicity rating (0-100) ([16]; 63 g al/ha) | ECHCG phytotoxicity rating (0-100) ([16]; 500 g al/ha) | SETVI phytotoxicity rating (0-100) ([17]; 63 g al/ha) | DIGSA phytotoxicity rating (0-100) ([20]; 63 g al/ha) | CASOB phytotoxicity rating (0-100) ([22]; 63 g al/ha) | CORN crop damage rating (0-100) ([24]; 63 g al/ha) | RICE crop damage rating (0-100) ([25]; 63 g al/ha) | RICE crop damage rating (0-100) ([25]; 500 g al/ha)
80: AMBEL phytotoxicity rating (0-100) ([14]; 500 g al/ha)
